Source: paper PMC6263107 (Journal of Enzyme Inhibition and Medicinal Chemistry, 2018)
Where “and” joins values, the source holds several entries; their conditions need not be identical. Equal entries are not always repeated.

What was measured:
SH-SY5Y cells [1] = test: Neuroprotection against Aβ1–40 peptide-induced cell death (MTT); assay type: cell-based, human; conditions: compound 1 µM; Aβ 1–40 30 µM
[2] = Oxygen radical absorbance capacity assay (ORAC-FL); conditions: for ORAC: ORAC-FL, Trolox equivalents
Description: The antioxidant activity of KTs was determined using the ORAC-FL method described by Dávalos et al.[30] using fluorescein as a fluorescent probe with minor modification. Briefly, fluorescein and antioxidant were incubated in a black 96-well microplate (Nunc) for 15 min at 37 °C. The 2,2’-azobis(amidinopropane) dihydrochloride (AAPH) was then added quickly using the built-in injector of Varioskan Flash plate reader (Thermo Scientific).
Results are expressed in the Trolox equivalents (TE) unit in relation to radical scavenging properties of Trolox.

SH-SY5Y cells [3] = test: Neuroprotection against oligomycin/rotenone-induced cell death (MTT); assay type: cell-based, human; conditions: O 10 µM / R 30 µM
Description: (§1) SH-SY5Y cell culture and treatment with compounds 2b–d and 2f. The cultures of human SH-SY5Y neuroblastoma cells kept under a CO2/air (5%/95%) humidified atmosphere at 37 °C for 24 h were treated with 100 µl of the test compounds or DMSO (0.1%) in DMEM/F12 (1:1) medium supplemented with 1% fetal bovine serum, 1X non-essential amino acids, 100 units/ml penicillin and 10 mg/ml streptomycin. Treatment medium was renewed every day for up to 48 h of treatment. MTT assay was then performed.
(§2) SH-SY5Y cells were seeded in 96-well culture plates at a density of 8 × 10^4 cells per well in DMEM/F12 (1:1) medium supplemented with 10% fetal bovine serum, 1X non-essential amino acids, 100 units/mL penicillin and 10 mg/mL streptomycin (Dutscher, France). After 24 h of incubation, the cultures were treated with 100 µl of the test compounds or DMSO (0.1%) in the same medium. Following 24 h, the cells were co-incubated with oligomycin A (10 µM)/rotenone (30 µM) (Sigma, France) or Aβ 1–40 (30 µM) with or without the tested compounds 2b–d and 2f at nontoxic concentrations against cells for an additional period of 24 h. MTT assay was then performed to determine the % of cell viability.
(§3) The ability to prevent the human neuroblastoma cell line SH-SY5Y cell death induced by toxic insults such as Αβ 1–40, implicated in ROS production and apoptosis-related signalling pathways, and oligomycin/rotenone (O/R)[39], was then assayed to determine the neuroprotective capacity of the four less hepatotoxic KTs 2b–d and 2f at nontoxic concentration against SH-SY5Y 3 and 10 µM, using melatonin and KA as reference molecules. For the evaluation of the neuroprotective effect, the cytotoxicity of O/R (10 µM/30 µM) on SH-SY5Y cell viability was determined as well as the toxicity of the selected KTs 2b–d and 2f at.

SH-SY5Y cells [4] = test: Neuroprotection against Aβ1–40 peptide-induced cell death (MTT); assay type: cell-based, human; conditions: for Aβ1–40 (%) neuroprotection: Aβ 1–40 30 µM
Description: as §1, §2, §3

SH-SY5Y cells [5] = test: Neuroprotection against oligomycin/rotenone-induced cell death (MTT); assay type: cell-based, human; conditions: compound 1 µM; O 10 µM / R 30 µM
hAChE = target: T1, hAChE (Homo sapiens, UniProt P22303); test: biochemical; conditions: mean ± SEM
T1 construct: 10 µl of cholinesterase obtained from human erythrocyte hemolyzate, out of blood samples; from tissue; host or cells: human erythrocyte hemolysate from blood samples
T1 sequence (P22303 32-617 isoform P22303-2 limits assumed): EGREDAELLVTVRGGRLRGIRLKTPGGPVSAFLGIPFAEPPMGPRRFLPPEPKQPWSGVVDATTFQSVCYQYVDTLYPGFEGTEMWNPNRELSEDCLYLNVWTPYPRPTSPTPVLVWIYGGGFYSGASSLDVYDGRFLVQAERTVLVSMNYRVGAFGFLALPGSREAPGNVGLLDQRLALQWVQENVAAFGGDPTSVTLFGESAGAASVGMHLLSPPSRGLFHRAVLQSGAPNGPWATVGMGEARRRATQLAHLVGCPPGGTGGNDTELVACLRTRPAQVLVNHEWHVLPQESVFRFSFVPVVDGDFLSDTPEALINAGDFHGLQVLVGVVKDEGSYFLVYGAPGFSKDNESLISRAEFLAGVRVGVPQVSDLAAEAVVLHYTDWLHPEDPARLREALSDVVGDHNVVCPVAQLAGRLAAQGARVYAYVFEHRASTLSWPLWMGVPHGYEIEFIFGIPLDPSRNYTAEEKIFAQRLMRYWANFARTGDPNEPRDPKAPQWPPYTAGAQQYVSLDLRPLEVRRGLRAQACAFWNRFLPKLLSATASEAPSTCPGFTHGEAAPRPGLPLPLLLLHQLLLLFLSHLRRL
Description: This blend was preincubated for 5 min and 20 µl of 0.01 M substrate (ATCh or BTCh) was added to initiate the reaction. […] The IC50 values are expressed as a mean ± SEM.
Next, as planned at the beginning of the project, the analysis of the antioxidant capacity of KT 2a–d, 2f–h, and 2l was carried out.

in vitro = assay type: cell-based; conditions: human, HepG2 cells, percent of cell viability vs DMSO-treated control, read-out: HepG2 cell viability
Description: (§4) The culture medium was refreshed after 24 h of incubation and 100 µl of six different concentrations (1–1000 µM) of test compounds or DMSO (0.1%) were then added. The cell viability was monitored by colourimetric assay with 3-[4,5-dimethylthiazol-2-yl]-2,5-diphenyl-tetrazolium bromide (MTT).
(§5) In this sense, all new KTs were submitted to the in vitro cell viability test (MTT assay) using human hepatocellular carcinoma cell line (HepG2)[26], as the most accepted probe to evaluate hepatotoxic effects. For this experiment, six different concentrations from 1 to 1000 µM were used.

HepG2 cells = test: in vitro; assay type: cell-based; conditions: at 1000 µM
Description: as §4, §5

eqBuChE = target: T2, eqBuChE (Equus caballus, UniProt P81908); test: biochemical; conditions: at 10 μM; Table 2 footnote b
T2 construct: serum horse BuChE (eqBuChE); from tissue; host or cells: horse serum
T2 sequence (P81908 whole entry): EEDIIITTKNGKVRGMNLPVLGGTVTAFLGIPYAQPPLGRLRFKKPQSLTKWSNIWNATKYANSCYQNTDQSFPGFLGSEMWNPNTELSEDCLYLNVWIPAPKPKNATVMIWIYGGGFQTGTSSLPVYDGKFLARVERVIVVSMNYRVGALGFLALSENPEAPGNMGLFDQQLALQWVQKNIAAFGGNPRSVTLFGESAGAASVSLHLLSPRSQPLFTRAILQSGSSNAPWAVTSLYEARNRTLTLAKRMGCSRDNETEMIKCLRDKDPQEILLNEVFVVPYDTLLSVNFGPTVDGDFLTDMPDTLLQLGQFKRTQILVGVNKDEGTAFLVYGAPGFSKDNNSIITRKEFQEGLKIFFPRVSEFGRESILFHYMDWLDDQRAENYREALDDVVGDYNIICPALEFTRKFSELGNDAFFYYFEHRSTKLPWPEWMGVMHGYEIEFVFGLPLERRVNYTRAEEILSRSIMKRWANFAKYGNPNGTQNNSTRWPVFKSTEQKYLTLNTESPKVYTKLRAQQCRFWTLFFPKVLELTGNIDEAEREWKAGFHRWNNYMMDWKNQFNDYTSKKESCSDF
Description: (§6) Ellman’s protocol was followed to perform the anticholinesterasic activity. Briefly, the reaction was carried out in a final volume of 3 ml of a phosphate-buffered solution (0.1 M) at pH =8.0 containing (2.625 µl, 0.35 mM) of 5,5’-dithiobis-2-nitrobenzoic acid (DTNB), 40 µl 1% w/v Bovine Albumin Serum phosphate-buffered solution (BSA), (29 µl, 0.035 U/ml) of EeAChE or (60 µl, 0.05 U/ml) of eqBuChE, and 3 µl of tested compound, which were incubated for 10 min. Then, the acetylthiocholine iodide or butyrylthiocholine was added, and the reaction was incubated for additional 15 min. The activity in absence of compound was used as control.

EeAChE = EeAChE (Electrophorus electricus, UniProt O42275); test: biochemical
Sequence of EeAChE (O42275 24-633): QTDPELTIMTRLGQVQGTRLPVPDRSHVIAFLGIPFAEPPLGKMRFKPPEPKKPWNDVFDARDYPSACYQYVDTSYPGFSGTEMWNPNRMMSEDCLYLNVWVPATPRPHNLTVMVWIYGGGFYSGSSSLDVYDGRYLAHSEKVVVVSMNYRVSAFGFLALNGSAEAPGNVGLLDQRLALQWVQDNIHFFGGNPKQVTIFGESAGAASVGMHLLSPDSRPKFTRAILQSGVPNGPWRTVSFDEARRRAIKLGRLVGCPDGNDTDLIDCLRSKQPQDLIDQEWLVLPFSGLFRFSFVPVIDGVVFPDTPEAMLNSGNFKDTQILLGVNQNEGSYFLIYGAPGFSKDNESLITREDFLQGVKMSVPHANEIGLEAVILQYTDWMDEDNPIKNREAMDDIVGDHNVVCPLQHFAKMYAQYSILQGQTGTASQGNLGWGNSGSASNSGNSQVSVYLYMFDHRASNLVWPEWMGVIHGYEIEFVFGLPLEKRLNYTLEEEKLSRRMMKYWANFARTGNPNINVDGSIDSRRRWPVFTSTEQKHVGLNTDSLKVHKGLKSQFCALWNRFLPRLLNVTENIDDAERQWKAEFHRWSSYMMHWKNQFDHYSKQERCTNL
Description: as §6

SH-SY5Y cells [6] = test: Toxicity of compounds on SH-SY5Y cells (MTT); assay type: cell-based; conditions: at 10 µM
Description: as §1

SMILES: O=c1cc(CO)occ1O [KA, kojic acid, reference compound]
- Aβ1–40 (%) neuroprotection (SH-SY5Y cells [1]): 51.56 ± 0.18 %
- ORAC [2]: 2.51 TE and 2.51 ± 0.17 TE
- O/R (%) neuroprotection (SH-SY5Y cells [3]; compound 3 µM): np
- Aβ1–40 (%) neuroprotection (SH-SY5Y cells [4]; compound 3 µM): 65.11 ± 0.20 %
- O/R (%) neuroprotection (SH-SY5Y cells [5]): np

SMILES: COc1cccc(C2c3oc(CO)cc(=O)c3Oc3nc4c(c(N)c32)CCCC4)c1 (centres unmarked) [KT2d, 11-amino-2-(hydroxymethyl)-12-(3-methoxyphenyl)-7,9,10,12-tetrahydropyrano [2',3':5,6] pyrano[2,3-b]quinolin-4(8H)-one]
- IC50 (hAChE): 4.52 ± 0.24 µM
- viability at 1 µM (in vitro; 1 µM): 101 ± 2.5%
- viability at 3 µM (in vitro; 3 µM): 98 ± 4.1%
- viability at 10 µM (in vitro; 10 µM): 102 ± 3.2%
- viability at 30 µM (in vitro; 30 µM): 102 ± 1.8%
- viability at 100 µM (in vitro; 100 µM): 99 ± 1.1%
- viability at 300 µM (in vitro; 300 µM): 87.2 ± 6.1%
- viability at 1000 µM (in vitro; 1000 µM): 65.5 ± 1.3%
- fold less toxic than tacrine (HepG2) (HepG2 cells): six-fold less-hepatotoxic than tacrine
- ORAC [2]: 4.79 TE
- ORAC ([2]; listed as 2d): 4.79±0.39 TE
- fold more potent than FA (ORAC) ([2]; vs ferulic acid): 1.3 fold
- inhibition at 10 µM (eqBuChE): < 50%
- IC50 (EeAChE; mean ± SEM): 640 ± 60 nM
- fold less active than tacrine (EeAChE) (EeAChE; ratio of IC50 values vs tacrine): approximately 20 fold
- O/R (%) neuroprotection (SH-SY5Y cells [3]; compound 3 µM): 24.35 ± 0.05 %
- O/R (%) neuroprotection (SH-SY5Y cells [3]; compound 10 µM): 12.53 ± 0.09%
- neuroprotection against Aβ 1–40 (SH-SY5Y cells [4]; at 3 µM and 10 µM): significant and similar neuroprotection
- Aβ1–40 (%) neuroprotection (SH-SY5Y cells [4]; compound 3 µM): 42.92 ± 0.20 %
- Aβ1–40 (%) neuroprotection (SH-SY5Y cells [4]; compound 10 µM): 41.19 ± 0.18 %
- toxicity for SH-SY5Y cells (SH-SY5Y cells [6]): nontoxic
